Experimental data published in US20150099754A1, “TREATMENT OF CANCER CHARACTERIZED BY GENE MUTATIONS” (SIGNAL PHARMACEUTICALS, LLC, priority 2013, published 2015).
Where “and” joins values, the source holds several entries; their conditions need not be identical. Equal entries are not always repeated.

Columns and labels:
[1] = tested on: Advanced Solid Tumors, Non-Hodgkin Lymphoma or Multiple Myeloma; test: Clinical Study A: Phase 1/2 dose finding study of Compound 1 administered orally (tumor response, RECIST 1.1); assay type: in vivo, human; set-up: key to RECIST* (best target lesion response): PR = partial response; SD = stable disease; PD = progressive disease; NE = nonevaluable; ND = not done
[2] = tested on: Advanced Solid Tumors, Non-Hodgkin Lymphoma, or Multiple Myeloma; test: Clinical Study B: Phase 1/2 dose finding study of the mTOR kinase inhibitor Compound 1 administered orally (best RECIST overall response, variants, Tables 2 and 3); assay type: in vivo, human; set-up: key: PR=partial response; SD=stable disease; PD=progressive disease; NE=non-evaluable; ND=not done; *: Confirmed reponse; settings: one line per patient
Description: A Phase 1/2, Multi-Center, Open-Label, Dose Finding Study to Assess the Safety. Tolerability, Pharmacokinetics and Preliminary Efficacy of the mTOR Kinase Inhibitor Compound 1 Administered Orally to Subjects with Advanced Solid Tumors, Non-Hodgkin Lymphoma, or Multiple Myeloma.
Compound 1 is administered orally to subjects with advanced solid tumors, non-Hodgkin lymphoma (NHL), or multiple myeloma (MM). The study is designed as a Phase 1/2 trial consisting of two parts: dose escalation (Part A) and dose expansion (Part B).
The primary objectives of the study are (a) to determine the safety and tolerability of Compound 1 when administered orally and to define the non-tolerated dose (NTD) and the maximum tolerated dose (MTD) and (b) to determine the preliminary pharmacokinetics (PK) of Compound 1 following both single and multiple oral dosing of Compound 1.
The secondary objectives of the study are: (a) to evaluate the extent of inhibition of phosphorylation of S6RP (Ser235/236 and/or Ser240/244) and/or 4EB-P1 (Thr37/46) for mTORC1 activity and AKT (Ser473) and/or other relevant biomarkers for mTORC2 activity in peripheral blood samples and tumor biopsies following treatment with Compound 1; (b) to provide information on the preliminary efficacy of Compound 1; and (c) to characterize PK of the metabolite of Compound 1 following oral dosing of Compound 1.
In Part A, subjects will receive single and multiple ascending doses of Compound 1 to measure pharmacokinetics (PK) and identify the maximum tolerated dose (MTD). A modified accelerated titration design (Simon et al, J Nat Cancer Inst (1997) Vol. 89, No. 15) will be used to identify initial toxicity. During the accelerated course, initial cohorts of one subject will be given Compound 1 in dose increments of 100% until the first instance of first-course grade 2 or higher toxicity suspected to be drug-related, at which point the accelerated phase will stop, and that particular cohort will be expanded to a total of 6 subjects. Subsequently, a standard escalation schedule, with approximately 50% dose increments and 6-subject cohorts, will be initiated in order to establish the non-tolerated dose (NTD) and MTD. Smaller increments and additional subjects within a dose cohort may also be evaluated. A dose will be considered the NTD when 2 evaluable subjects in a cohort experience drug-related DLT. When the NTD is established, dose escalation will stop. The MTD is defined as the last dose level below the NTD with 0 or 1 out of 6 evaluable subjects experiencing DLT during Cycle 1. An intermediate dose (ie, one between the NTD and the last dose level before the NTD) or additional subjects within any dose cohort may be required to more precisely determine the MTD.
In Part B, subjects may start Compound 1 at the MTD and/or a lower dose level based on safety, PK and PD data from Part A. Approximately 200 subjects will be treated and evaluated for safety and preliminary antitumor activity after every two cycles of therapy. Selected tumor types include non-small cell lung cancer (NSCLC), glioblastoma multiforme (GBM), hepatocellular carcinoma (HCC), gastrointestinal neuroendocrine tumor (NET) of non-pancreatic origin, hormone receptor positive breast cancer (HRPBC), diffuse large B-cell lymphoma (DLBCL), and multiple myeloma (MM). Up to 40 evaluable subjects will be enrolled for each tumor type.
Men and women, 18 years or older, with advanced NHL, MM, or advanced unresectable solid tumors, including subjects who have progressed on (or not been able to tolerate) standard therapy or for whom no standard anticancer therapy exists.
During the first cycle only in Part A, each subject will be administered a single dose of Compound 1 (Day −1), followed by a 48-hour observation and PK sampling period, followed on Day 1 by daily uninterrupted dosing for 28 days (Cycle 1=30 days). In subsequent Part A cycles, subjects are treated in 28-day cycles with continuous dosing from Day 1 to 28. […]

[3] = tested on: hematological cancer cell lines; test: Growth inhibitory effect of Compound 1 (Cell Titer-Glo, 72 hours, GI50) correlated with biomarkers; assay type: cell-based
Description: Cell Lines and Culture Conditions.
40 hematological cancer cell lines (Table 5) used in the study were purchased commercially. A lung cancer cell line A549 was used as a control cell line. A549 was purchased from National Cancer Institute (NCI) and cultured in RPMI+10% fetal bovine serum (FBS).
Cell pellets were made for 37 cell lines without any compound treatment and a reverse phase protein array (RPPA) was performed as described in Tibes R, et al. Mol Cancer Ther 2006; 5:2512-2521. The RPPA analysis of the 37 hematological cell lines was performed with 262 antibodies. The relative level of each protein in each sample was determined and normalized for protein loading. Protein levels were then transformed to log 2 values and median centered by individual batch.
Cells were lysed in RNeasy kit tissue lysis (RLT) buffer (Qiagen; Valencia, Calif.) and total RNA was isolated using RNeasy. Double-stranded cDNA and biotin-labeled cRNA were synthesized using 100 ng of total RNA using Ambion's MessageAmp Premier RNA Amplification Kit. […]
The seeding density for each cell line was optimized to ensure assay linearity in 384-well plates. […] When ready for testing, plates were removed from the freezer, thawed, and unsealed just prior to the addition of the test cells.
Prior to testing, cells were grown and expanded in culture flasks to provide sufficient amounts of starting material. […] At the time when exposure of cells to compound began (t0), initial cell number was assessed via a viability assay (Cell Titer-Glo) by quantifying the level of luminescence generated by adenosine-5′-triphosphate (ATP) present in viable cells. After 72 hours, cell viability of compound-treated cells was assessed via Cell Titer-Glo and read for luminescence.
Cell lines were assayed for growth inhibition by Compound 1 in at least 3 independent tests. […] The response of the control cell line to the compound was monitored closely to enable comparison of the data generated through the assay period. […] In addition, the IC50 value of Compound 1 for each cell line was calculated.

A549 = test: Repeat testing of pre-spotted Compound 1 plates against the control cell line (A549); assay type: cell-based; settings: sealed 384-well plates stored at −20° C. for up to 1 month
Description: The seeding density for each cell line was optimized to ensure assay linearity in 384-well plates. Increasing concentrations of Compound 1 (0.5 nM to 10 μM) were spotted in a 10-point serial dilution fashion (3-fold dilution) in duplicate within the plate via an acoustic dispenser (EDCATS-100) into an empty 384-well plate. The dimethyl sulfoxide (DMSO) concentration was kept constant for a final assay concentration of 0.1% DMSO. Plates were replicated for use against different cell lines and testing periods. After compound plate replication, all plates were sealed (Agilent ThermoLoc) and stored at −20° C. for up to 1 month. […] When ready for testing, plates were removed from the freezer, thawed, and unsealed just prior to the addition of the test cells.

- stability in pre-spotted plates (A549): stable
SMILES: CO[C@H]1CC[C@H](N2C(=O)CNc3ncc(-c4ccc(C(C)(C)O)nc4)nc32)CC1 [Compound 1, 7-(6-(2-hydroxypropan-2-yl)pyridin-3-yl)-1-((trans)-4-methoxycyclohexyl)-3,4-dihydropyrazino[2,3-b]pyrazin-2(1H)-one]
- RECIST* (best target lesion response) ([1]; ER+ patients, genes with mutations of interest): SD (8×) and PD (3×) and PR (2×)
- showing RECIST PR ([1]; patients treated with Compound 1, FIG. 1, data as of September 2014): 2/17
- target lesions showing PR ([1]; patients treated with Compound 1, FIG. 1, data as of September 2014, all with PIK3CA mutations): 3/17
- Best overall response ([2]; patients with HCC exp. (expansion)): SD (2×) and NE
- Best overall response ([2]; patients with MM): PD (8×) and NE and SD (4×)
- Best overall response ([2]; patients with NET exp. (expansion)): SD (17×) and PD (2×) and NE and PR
- Best overall response ([2]; patients with NET): SD (18×) and NE (4×) and PR
- Best overall response ([2]; patients with NSCL+): PR and PD
- Best overall response ([2]; patients with NSCLC): NE (6×) and SD (11×) and PD (2×)
- IRF4 protein levels versus sensitivity to growth inhibition ([3]; 37 hematological cancer cell lines, RPPA, FIG. 5): negatively correlated
- IRF4 gene expression level (Probe Set 216986_s_at) versus sensitivity to growth inhibition ([3]; 40 hematological cancer cell lines, FIG. 4): negatively correlated
- sensitivity versus activation of mTORC1 and mTORC2 (biomarker RPPA) ([3]; subgroup of DLBCL lines, FIG. 6): correlated
